Measurements published in article PMC6437697 (Journal of Medicinal Chemistry, 2019).

Experiments:
Experiment in all cases: KINOMEscan
Type in all cases: binding
Conditions in all cases: read-out: % control activity remaining
SgK110 = molecular target: T1, SgK110 (Homo sapiens, UniProt P0C264)
T1 construct: purchased Eurofins DiscoverX KINOMEscan
T1 sequence (P0C264 1-359): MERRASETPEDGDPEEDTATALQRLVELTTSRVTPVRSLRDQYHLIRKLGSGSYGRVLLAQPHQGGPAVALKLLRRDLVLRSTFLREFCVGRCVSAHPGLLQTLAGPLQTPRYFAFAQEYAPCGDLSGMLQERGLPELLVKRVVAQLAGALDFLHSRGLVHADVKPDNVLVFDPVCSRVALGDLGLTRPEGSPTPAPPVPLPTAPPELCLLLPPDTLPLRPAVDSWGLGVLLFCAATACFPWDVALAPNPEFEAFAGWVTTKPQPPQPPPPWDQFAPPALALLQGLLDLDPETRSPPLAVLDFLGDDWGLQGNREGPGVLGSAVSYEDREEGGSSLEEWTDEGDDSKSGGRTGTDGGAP

PRKG2 = molecular target: T2, PRKG2 (Homo sapiens, UniProt Q13237)
T2 construct: purchased Eurofins DiscoverX KINOMEscan
T2 sequence (Q13237 1-762): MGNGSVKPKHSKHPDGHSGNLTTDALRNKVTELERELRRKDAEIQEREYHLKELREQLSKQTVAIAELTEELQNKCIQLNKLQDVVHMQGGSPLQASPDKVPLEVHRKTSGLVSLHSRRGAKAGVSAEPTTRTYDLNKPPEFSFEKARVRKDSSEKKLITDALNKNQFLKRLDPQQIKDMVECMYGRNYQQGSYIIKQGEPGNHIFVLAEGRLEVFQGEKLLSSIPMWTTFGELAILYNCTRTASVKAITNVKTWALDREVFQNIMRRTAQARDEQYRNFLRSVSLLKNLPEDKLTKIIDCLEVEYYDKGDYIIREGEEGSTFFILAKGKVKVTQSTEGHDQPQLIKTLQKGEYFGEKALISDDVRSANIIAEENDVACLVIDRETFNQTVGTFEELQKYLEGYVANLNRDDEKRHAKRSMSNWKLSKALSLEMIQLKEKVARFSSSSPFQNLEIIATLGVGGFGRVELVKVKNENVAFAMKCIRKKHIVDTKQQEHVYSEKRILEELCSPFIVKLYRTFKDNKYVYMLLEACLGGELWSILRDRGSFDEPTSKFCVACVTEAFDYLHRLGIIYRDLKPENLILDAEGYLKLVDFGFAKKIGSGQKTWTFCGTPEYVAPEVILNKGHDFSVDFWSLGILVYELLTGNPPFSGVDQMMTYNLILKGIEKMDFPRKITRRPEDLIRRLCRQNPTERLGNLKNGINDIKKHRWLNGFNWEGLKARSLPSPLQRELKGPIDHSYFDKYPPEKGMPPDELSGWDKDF

[1] = molecular target: T3, ABL1(Q252H)-phosphorylated (Homo sapiens, UniProt P00519, Q252H)
T3 construct: purchased Eurofins DiscoverX KINOMEscan

EGFR(E746-A750del) = molecular target: T4, EGFR(E746-A750del) (Homo sapiens, UniProt P00533, DEL746-750)
T4 construct: purchased Eurofins DiscoverX KINOMEscan

[2] = molecular target: T5, RSK2(Kin.Dom.2-C-terminal) (Homo sapiens, UniProt P51812)
T5 construct: RSK2(Kin.Dom.2-C-terminal); purchased Eurofins DiscoverX KINOMEscan

PIK3CA(C420R) = molecular target: T6, PIK3CA(C420R) (Homo sapiens, UniProt P42336, C420R)
T6 construct: purchased Eurofins DiscoverX KINOMEscan

[3] = molecular target: T7, RSK4(Kin.Dom.2-C-terminal) (Homo sapiens, UniProt Q9UK32)
T7 construct: RSK4(Kin.Dom.2-C-terminal); purchased Eurofins DiscoverX KINOMEscan
T7 sequence (Q9UK32 426-683 limits assumed): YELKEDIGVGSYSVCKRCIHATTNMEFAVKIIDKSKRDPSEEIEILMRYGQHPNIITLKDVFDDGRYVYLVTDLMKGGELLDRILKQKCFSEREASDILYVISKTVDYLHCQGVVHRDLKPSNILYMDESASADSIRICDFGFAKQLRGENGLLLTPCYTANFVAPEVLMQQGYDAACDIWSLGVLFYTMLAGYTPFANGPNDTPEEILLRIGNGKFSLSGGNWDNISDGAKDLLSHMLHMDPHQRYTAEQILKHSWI

BTK = molecular target: T8, BTK (Homo sapiens, UniProt Q06187)
T8 construct: purchased Eurofins DiscoverX KINOMEscan

ERBB3 = molecular target: T9, ERBB3 (Homo sapiens, UniProt P21860)
T9 construct: purchased Eurofins DiscoverX KINOMEscan

CSF1R-autoinhibited = molecular target: T10, CSF1R-autoinhibited (Homo sapiens, UniProt P07333)
T10 construct: purchased Eurofins DiscoverX KINOMEscan
T10 sequence (P07333 539-972 limits assumed): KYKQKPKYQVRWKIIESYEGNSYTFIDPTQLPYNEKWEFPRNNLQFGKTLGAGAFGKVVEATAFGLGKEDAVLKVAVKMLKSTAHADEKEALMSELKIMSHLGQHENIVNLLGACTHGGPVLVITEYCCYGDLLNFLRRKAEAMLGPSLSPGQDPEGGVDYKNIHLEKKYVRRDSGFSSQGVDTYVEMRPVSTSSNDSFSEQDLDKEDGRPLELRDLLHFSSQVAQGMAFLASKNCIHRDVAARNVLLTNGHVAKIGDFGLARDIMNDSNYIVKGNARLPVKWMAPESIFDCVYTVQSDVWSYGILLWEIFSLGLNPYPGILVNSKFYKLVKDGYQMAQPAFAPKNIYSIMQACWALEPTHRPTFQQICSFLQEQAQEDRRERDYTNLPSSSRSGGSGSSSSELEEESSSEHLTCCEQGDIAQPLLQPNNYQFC

DAPK3 = molecular target: T11, DAPK3 (Homo sapiens, UniProt O43293)
T11 construct: purchased Eurofins DiscoverX KINOMEscan

HIPK2 = molecular target: T12, HIPK2 (Homo sapiens, UniProt Q9H2X6)
T12 construct: purchased Eurofins DiscoverX KINOMEscan

PIK3CA(E542K) = molecular target: T13, PIK3CA(E542K (Homo sapiens, UniProt P42336, E542K))
T13 construct: purchased Eurofins DiscoverX KINOMEscan
T13 sequence (P42336 whole entry E542K): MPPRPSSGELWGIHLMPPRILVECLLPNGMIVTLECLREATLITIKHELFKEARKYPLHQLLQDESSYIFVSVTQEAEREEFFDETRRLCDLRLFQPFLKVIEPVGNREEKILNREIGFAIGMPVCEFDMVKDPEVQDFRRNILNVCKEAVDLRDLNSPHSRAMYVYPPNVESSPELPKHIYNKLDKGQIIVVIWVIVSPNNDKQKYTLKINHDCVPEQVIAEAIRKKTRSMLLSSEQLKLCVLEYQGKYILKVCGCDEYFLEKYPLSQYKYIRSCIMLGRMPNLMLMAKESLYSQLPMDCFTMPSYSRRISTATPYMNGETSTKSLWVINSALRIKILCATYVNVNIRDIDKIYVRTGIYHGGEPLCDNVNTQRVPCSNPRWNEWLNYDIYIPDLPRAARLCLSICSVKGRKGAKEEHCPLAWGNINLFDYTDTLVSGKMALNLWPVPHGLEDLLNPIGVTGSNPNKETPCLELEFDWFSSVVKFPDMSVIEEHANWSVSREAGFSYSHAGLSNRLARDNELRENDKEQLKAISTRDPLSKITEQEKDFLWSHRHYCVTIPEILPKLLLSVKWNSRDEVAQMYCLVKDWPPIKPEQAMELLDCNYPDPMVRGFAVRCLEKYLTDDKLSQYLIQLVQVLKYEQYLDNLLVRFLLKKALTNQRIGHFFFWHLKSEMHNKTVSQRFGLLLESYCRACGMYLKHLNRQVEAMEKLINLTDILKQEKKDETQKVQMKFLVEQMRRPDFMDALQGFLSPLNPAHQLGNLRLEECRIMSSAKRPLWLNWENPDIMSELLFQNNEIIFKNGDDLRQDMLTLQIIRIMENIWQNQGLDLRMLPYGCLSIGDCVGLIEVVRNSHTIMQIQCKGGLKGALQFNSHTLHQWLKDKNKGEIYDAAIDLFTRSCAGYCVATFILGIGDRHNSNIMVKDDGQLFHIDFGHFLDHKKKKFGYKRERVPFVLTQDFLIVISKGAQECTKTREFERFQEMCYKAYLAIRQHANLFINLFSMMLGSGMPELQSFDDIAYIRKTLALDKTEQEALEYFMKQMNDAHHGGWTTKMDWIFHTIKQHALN

T8 sequence (Q06187 whole entry): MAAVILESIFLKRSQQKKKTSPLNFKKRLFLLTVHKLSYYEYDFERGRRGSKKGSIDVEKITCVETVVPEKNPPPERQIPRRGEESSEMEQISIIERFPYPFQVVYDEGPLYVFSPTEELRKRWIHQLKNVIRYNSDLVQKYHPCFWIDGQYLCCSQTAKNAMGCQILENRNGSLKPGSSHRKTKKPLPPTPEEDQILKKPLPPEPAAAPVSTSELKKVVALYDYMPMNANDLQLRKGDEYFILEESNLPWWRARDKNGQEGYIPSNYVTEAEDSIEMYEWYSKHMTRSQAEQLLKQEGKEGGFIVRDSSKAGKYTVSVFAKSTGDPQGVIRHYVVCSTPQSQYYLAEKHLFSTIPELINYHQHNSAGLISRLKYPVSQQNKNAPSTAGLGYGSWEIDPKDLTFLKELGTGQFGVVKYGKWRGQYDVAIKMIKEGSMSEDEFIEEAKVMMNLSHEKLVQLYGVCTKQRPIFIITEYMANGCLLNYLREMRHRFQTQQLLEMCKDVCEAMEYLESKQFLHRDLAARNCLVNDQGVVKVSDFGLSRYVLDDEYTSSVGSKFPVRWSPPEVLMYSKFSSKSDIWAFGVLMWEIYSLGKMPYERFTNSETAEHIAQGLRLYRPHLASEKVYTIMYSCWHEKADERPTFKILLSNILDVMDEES
T12 sequence (Q9H2X6 whole entry): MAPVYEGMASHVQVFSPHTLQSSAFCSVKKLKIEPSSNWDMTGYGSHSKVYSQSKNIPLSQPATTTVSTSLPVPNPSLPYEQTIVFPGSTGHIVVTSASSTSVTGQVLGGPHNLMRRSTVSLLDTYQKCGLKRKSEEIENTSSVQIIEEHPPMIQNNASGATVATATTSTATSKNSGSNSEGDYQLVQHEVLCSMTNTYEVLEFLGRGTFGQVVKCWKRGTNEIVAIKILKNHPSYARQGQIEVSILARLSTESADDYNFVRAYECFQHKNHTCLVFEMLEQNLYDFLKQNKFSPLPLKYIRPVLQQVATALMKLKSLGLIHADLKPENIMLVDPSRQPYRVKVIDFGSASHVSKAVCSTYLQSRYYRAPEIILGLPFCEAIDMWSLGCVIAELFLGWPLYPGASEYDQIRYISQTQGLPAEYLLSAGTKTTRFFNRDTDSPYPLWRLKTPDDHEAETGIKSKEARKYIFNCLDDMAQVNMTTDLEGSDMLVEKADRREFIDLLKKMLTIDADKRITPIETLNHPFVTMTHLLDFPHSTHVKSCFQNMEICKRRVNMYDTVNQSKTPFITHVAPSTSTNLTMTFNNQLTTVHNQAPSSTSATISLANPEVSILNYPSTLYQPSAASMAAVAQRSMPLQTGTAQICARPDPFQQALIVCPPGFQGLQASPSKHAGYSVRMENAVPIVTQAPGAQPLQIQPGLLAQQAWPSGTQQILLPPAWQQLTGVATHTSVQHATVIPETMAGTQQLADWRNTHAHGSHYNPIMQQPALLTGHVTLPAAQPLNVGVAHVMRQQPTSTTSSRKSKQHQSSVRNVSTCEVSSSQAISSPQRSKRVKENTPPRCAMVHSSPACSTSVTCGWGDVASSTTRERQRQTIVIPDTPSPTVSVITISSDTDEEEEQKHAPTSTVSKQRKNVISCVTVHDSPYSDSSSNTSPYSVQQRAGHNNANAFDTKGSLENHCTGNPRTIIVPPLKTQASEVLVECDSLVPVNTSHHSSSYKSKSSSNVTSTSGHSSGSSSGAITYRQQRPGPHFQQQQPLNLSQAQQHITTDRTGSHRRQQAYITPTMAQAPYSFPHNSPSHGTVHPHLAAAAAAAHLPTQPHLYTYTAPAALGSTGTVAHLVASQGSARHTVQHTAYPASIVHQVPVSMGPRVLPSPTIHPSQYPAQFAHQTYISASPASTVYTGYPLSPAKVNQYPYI
T4 sequence (P00533 with tags, fused parts or gaps DEL746-750 limits assumed): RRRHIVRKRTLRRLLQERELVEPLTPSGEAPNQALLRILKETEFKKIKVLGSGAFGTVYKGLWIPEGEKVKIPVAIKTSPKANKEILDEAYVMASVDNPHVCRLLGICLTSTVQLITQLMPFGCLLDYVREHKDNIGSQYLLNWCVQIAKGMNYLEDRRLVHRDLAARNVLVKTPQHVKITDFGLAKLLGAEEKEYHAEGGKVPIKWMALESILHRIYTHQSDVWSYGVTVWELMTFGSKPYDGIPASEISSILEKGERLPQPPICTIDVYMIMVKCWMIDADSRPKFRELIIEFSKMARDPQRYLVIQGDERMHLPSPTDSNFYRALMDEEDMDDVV
T9 sequence (P21860 20-1342): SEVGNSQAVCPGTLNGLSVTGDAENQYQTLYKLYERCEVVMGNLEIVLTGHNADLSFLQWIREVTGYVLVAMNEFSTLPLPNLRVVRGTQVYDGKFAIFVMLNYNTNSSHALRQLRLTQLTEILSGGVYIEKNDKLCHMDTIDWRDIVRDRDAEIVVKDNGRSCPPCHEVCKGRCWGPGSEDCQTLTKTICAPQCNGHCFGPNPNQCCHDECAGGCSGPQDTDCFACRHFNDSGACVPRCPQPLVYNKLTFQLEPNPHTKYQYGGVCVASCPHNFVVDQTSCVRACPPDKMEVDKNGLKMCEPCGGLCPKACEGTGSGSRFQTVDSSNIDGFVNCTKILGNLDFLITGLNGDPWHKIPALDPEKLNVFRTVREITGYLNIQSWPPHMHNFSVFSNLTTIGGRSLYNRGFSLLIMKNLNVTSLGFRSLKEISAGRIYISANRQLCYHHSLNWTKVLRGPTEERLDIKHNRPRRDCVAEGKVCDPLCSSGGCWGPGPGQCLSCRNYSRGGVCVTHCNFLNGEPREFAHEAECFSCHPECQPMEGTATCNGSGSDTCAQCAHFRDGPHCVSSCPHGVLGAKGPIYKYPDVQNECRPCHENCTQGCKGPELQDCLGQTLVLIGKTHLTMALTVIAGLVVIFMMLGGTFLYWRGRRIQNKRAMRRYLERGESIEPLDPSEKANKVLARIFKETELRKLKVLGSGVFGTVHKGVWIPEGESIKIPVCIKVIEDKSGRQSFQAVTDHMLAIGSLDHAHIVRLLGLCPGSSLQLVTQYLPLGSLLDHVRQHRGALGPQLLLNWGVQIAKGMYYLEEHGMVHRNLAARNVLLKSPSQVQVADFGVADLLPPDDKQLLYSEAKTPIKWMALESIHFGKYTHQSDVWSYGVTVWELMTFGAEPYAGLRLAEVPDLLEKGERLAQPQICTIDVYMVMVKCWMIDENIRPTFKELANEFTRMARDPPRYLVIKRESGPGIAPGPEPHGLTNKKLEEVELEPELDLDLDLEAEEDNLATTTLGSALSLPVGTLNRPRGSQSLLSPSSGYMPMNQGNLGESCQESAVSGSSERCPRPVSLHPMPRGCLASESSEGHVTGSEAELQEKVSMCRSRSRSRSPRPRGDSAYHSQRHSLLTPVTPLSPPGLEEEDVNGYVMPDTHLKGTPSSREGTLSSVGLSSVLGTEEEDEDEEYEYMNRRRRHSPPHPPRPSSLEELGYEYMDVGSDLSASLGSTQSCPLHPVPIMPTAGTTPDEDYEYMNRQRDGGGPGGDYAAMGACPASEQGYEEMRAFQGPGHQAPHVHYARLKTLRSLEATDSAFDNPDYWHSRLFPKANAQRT
T5 sequence (P51812 422-679 limits assumed): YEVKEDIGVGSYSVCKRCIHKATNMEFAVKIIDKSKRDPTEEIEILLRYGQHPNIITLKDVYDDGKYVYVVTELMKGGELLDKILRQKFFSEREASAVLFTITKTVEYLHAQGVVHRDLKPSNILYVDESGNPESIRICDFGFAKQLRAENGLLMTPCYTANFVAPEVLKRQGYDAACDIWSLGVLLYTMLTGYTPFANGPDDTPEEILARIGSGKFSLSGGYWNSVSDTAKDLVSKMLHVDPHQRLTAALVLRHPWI
T6 sequence (P42336 whole entry C420R): as the sequence (P42336 whole entry E542K) above, with C420R, K542E counted along it

Clc1cc(NCC2CC2)c2ncc(-c3ccc4[nH]ncc4c3)n2n1 [compound 2, 6-Chloro-N-(cyclopropylmethyl)-3-(1H-indazol-5-yl)imidazo[1,2-b]pyridazin-8-amine] was tested, and the remaining binding at 1 µM (SgK110) was 100%, the remaining binding at 1 µM (PRKG2) was 84% and the remaining binding at 1 µM [1] was 78%. It also gave a remaining binding at 1 µM (EGFR(E746-A750del)) of 84%, a remaining binding at 1 µM [2] of 89% and a remaining binding at 1 µM (PIK3CA(C420R)) of 88%. The remaining binding at 1 µM [3] was 92%, the remaining binding at 1 µM (BTK) was 98% and the remaining binding at 1 µM (ERBB3) was 96%. It also gave a remaining binding at 1 µM (CSF1R-autoinhibited) of 98%, a remaining binding at 1 µM (DAPK3) of 85% and a remaining binding at 1 µM (HIPK2) of 62%. The remaining binding at 1 µM (PIK3CA(E542K)) was 72%.
Molecule O=C(CN1CCOCC1)N[C@H]1CC[C@H](Nc2cc(Cl)nn3c(-c4ccc5[nH]ncc5c4)cnc23)CC1 [compound 26] has a remaining binding at 1 µM (SgK110) of 100%, a remaining binding at 1 µM (PRKG2) of 64% and a remaining binding at 1 µM [1] of 46%. The remaining binding at 1 µM (EGFR(E746-A750del)) was 91%, the remaining binding at 1 µM [2] was 100% and the remaining binding at 1 µM (PIK3CA(C420R)) was 89%. For the same molecule, the remaining binding at 1 µM [3] was 56%, the remaining binding at 1 µM (BTK) was 100% and the remaining binding at 1 µM (ERBB3) was 99%. It also gave a remaining binding at 1 µM (CSF1R-autoinhibited) of 91%, a remaining binding at 1 µM (DAPK3) of 34% and a remaining binding at 1 µM (HIPK2) of 0.7%. The remaining binding at 1 µM (PIK3CA(E542K)) was 93%.
In the case of CN1CCC(CNc2cc(Cl)nn3c(-c4cc5nc(Nc6ccccc6)[nH]c5cc4F)cnc23)CC1 [compound 31, 6-Chloro-3-(6-fluoro-2-(phenylamino)-1H-benzo[d]imidazol-5-yl)-N-((1-methylpiperidin-4-yl)methyl)imidazo[1,2-b]pyridazin-8-amine], the remaining binding at 1 µM (SgK110) is reported as 100%, the remaining binding at 1 µM (PRKG2) is reported as 64% and the remaining binding at 1 µM [1] is reported as 79%. For the same molecule, the remaining binding at 1 µM (EGFR(E746-A750del)) was 100%, the remaining binding at 1 µM [2] was 73% and the remaining binding at 1 µM (PIK3CA(C420R)) was 85%. The remaining binding at 1 µM [3] was 88%, the remaining binding at 1 µM (BTK) was 70% and the remaining binding at 1 µM (ERBB3) was 71%. For the same molecule, the remaining binding at 1 µM (CSF1R-autoinhibited) was 100%, the remaining binding at 1 µM (DAPK3) was 84% and the remaining binding at 1 µM (HIPK2) was 85%. The remaining binding at 1 µM (PIK3CA(E542K)) was 65%.
